Patent US7491819B1 (priority 2004, dated 2009)
Where two headings read alike, the source gives them in different places.

Tests used:
HIV-integrase = molecular target: T1, HIV-integrase (Human immunodeficiency virus type 1 group M subtype B, UniProt P12497); assay: HIV-Integrase Inhibition Activity (SPA bead strand-transfer assay); format: biochemical
T1 construct: Recombinant integrase (0.26 ng) was incubated with the beads
Summary of the method: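 Strand-transfer read-out: CPM from P33-labelled target DNA (0.1 fmol) joined to bead-bound biotin substrate DNA (5 pmole), with EDTA stop at 10 mM final. Integrase (0.26 ng) prebound to streptavidin SPA beads 90 min, 37° C, and washed before adding inhibitor.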

NL-Rluc virus = assay: Inhibition of HIV replication (recombinant NL-Rluc virus, luciferase); format: cell-based; details: Human immunodeficiency virus 1, read-out: Inhibition of HIV replication
HIV-1 303B = assay: microbe, parasite or virus in culture; format: cell-based; details: for EC50: Human immunodeficiency virus 1, MT2, 120 h; for overall antiviral effect of the two-drug combination with Example 19 (in words): classification from combination indices and confidence intervals; for Combination Indices at 50% HIV Inhibition (Confidence Interval) / Combination Indices at 75% HIV Inhibition (Confidence Interval) / Combination Indices at 90% HIV Inhibition (Confidence Interval): in combination with Example 19, 95% CI in parenthesis
Procedure: Virus and cell lines. The T-cell line, MT-2, was obtained through the AIDS Research and Reference Reagent Program. MT-2 cells were sub-cultured twice a week in RPMI 1640 medium supplemented with 10% fetal bovine serum, 2 mM L-glutamine, and 10 mM HEPES buffer pH 7.5. The HIV-1303B virus is a molecular clone derived from the NL4-3 strain of HIV-1 that was obtained from the NIH AIDS Research and Reference Reagent Program. For combinations with enfuvirtide, the NL36G virus was used. […] Virus stocks were made by transfecting 293T cells with a proviral DNA clone using LipofectAMINE PLUS (Invitrogen), according to the manufacturer's instructions. Three days post-transfection, virus was harvested and passaged once in MT-2 cells before titration in MT-2 cells.
Chemicals. Example 19, atazanavir, didanosine, stavudine, efavirenz, and enfuvirtide (T-20) were synthesized by Bristol-Myers Squibb using published or known reactions. […] Tenofovir was tested as tenofovir disopoxil fumarate. Zidovudine and zalcitabine were purchased from Sigma, and emtricitabine from Moravek Biochemicals.
Drug Susceptibility and Cytotoxicity Assays. For drug susceptibility assays, MT-2 cells were infected with HIV-1 303B (or NL36G), at an MOI of 0.001, and seeded into 96-well microtiter plates (2.5×10^5 cells/ml) containing serial dilutions of test compounds. […] Each drug ratio consisted of an array of 3-fold serial dilutions, and was performed with eight or more replicas on separate multi-well plates. HIV infected cells were incubated at 37° C. in 5% CO2, and on day five post-infection, the extent of virus replication was measured by determining cell viability using the CellTiter 96 Aqueous Non-Radioactive Cell Proliferation Assay (Promega). […] Cytotoxicity assays were performed in parallel with the combination experiments. Here, uninfected cells were exposed to the same drug combinations, and assayed after five days for cell viability using the MTS assay.
Analysis of Drug Combination Effects. For determination of combination index (CI) values, drugs were diluted in a fixed ratio and multiple ratios were analyzed. The drug serial dilutions spanned a range of concentrations near the EC50 value of each compound, so that equivalent antiviral activities could be compared. The normalized responses from each therapy are fit to the four-parameter logistic model with a common minimum and maximum across all therapies. Conceptually, this equation can be written as
In this equation, Fa stands for “fraction affected,” and represents the fraction of the viral load that has been inactivated. […] The EC50, represented by the Ci in the above equation, is the drug concentration that is expected to reduce the amount of virus by 50%, and the Bi are the parameters that reflects the slope of the concentration-response curve. For this assay, A is the bottom plateau common to all curves, D is the common top plateau, Bj is the “slope” parameter for the jth therapy, and Cj is the concentration that produces an effect equal to the average of A and D for the jth therapy. Therapies 1 and 2 correspond to mono therapies 1 and 2, respectively. Therapies 3, 4, and 5 correspond to the three combination therapies. EC50 values for each drug were determined from the single drug experiments, using the above equation. The equation was fit using a nonlinear regression routine (Proc Nlin) in PC SAS version 8.2 (SAS Institute Inc.).
To assess antiviral effects of different drug combination treatments, combination indices (CIs) were calculated according to Chou and Rideout. The combination index was computed as
In this equation [Dm]1 and [Dm]2 are the concentrations of drugs that would individually produce a specific level of effect, while [D]1 and [D]2 are the concentrations of drugs in combination that would produce the same level of effect.
Theoretically, additivity is implied if the CI is equal to one, synergy if the CI is less than one, and antagonism if the CI is greater than one.

[1] = Table 2a, read-out: HIV-Integrase Inhibition Activity
[2] = EC50 ratio Example 19:comparator 1:1
[3] = EC50 ratio Example 19:comparator 1:2.5
[4] = EC50 ratio Example 19:comparator 2.5:1

Cc1nncn1-c1cc(F)ccc1CNC(=O)c1nc2n(c(=O)c1O)CCOC2(C)C [Example 303, Pyrimido[2,1-c][1,4]oxazine-2-carboxamide, N-[[4-fluoro-2-(3-methyl-4H-1,2,4-triazol-4-yl)phenyl]methyl]-4,6,7,9-tetrahydro-3-hydroxy-9,9-dimethyl-4-oxo-]
IC50 (HIV-integrase; [1]): 100 to 1000 nM
EC50 (NL-Rluc virus): > 1000 nM

Cc1nc(C)n(-c2cc(F)ccc2CNC(=O)c2nc3n(c(=O)c2O)CCCOC3(C)C)n1 [Example 319, 6H-Pyrimido[2,1-c][1,4]oxazepine-2-carboxamide, N-[[2-(3,5-dimethyl-1H-1,2,4-triazol-1-yl)-4-fluorophenyl]methyl]-4,7,8,10-tetrahydro-3-hydroxy-10,10-dimethyl-4-oxo-]
IC50 (HIV-integrase; [1]): 2 to 100 nM
EC50 (NL-Rluc virus): 3 to 100 nM

CCC1OCCn2c1nc(C(=O)NCc1ccc(F)cc1-n1ncnc1C)c(O)c2=O (stereo not shown) [Example 285, Pyrimido[2,1-c][1,4]oxazine-2-carboxamide, 9-ethyl-N-[[4-fluoro-2-(5-methyl-1H-1,2,4-triazol-1-yl)phenyl]methyl]-4,6,7,9-tetrahydro-3-hydroxy-4-oxo-]
EC50 (NL-Rluc virus): 3 to 100 nM

CC1(C)OCCn2c1nc(C(=O)NCc1ccc(F)cc1)c(O)c2=O [Example 19, Pyrimido[2,1-c][1,4]oxazine-2-carboxamide, N-[(4-fluorophenyl)methyl]-4,6,7,9-tetrahydro-3-hydroxy-9,9-dimethyl-4-oxo-]
IC50 (HIV-integrase; Table 1, read-out: Activity (HIV-integrase inhibition, IC50 class)): 2 to 100 nM
EC50 (HIV-1 303B): 22 nM
overall antiviral effect of the two-drug combination with Example 19 (in words) (HIV-1 303B): synergistic or additive-synergistic

Nc1ccn([C@H]2CC[C@@H](CO)O2)c(=O)n1 [Zalcitabine, zalcitabine]
EC50 (HIV-1 303B): 124 nM
overall antiviral effect of the two-drug combination with Example 19 (in words) (HIV-1 303B): synergistic to additive
Combination Indices at 50% HIV Inhibition (Confidence Interval) (HIV-1 303B; [2]): 0.61 (0.48, 0.73)
Combination Indices at 75% HIV Inhibition (Confidence Interval) (HIV-1 303B; [2]): 0.56 (0.39, 0.73)
Combination Indices at 90% HIV Inhibition (Confidence Interval) (HIV-1 303B; [2]): 0.53 (0.28, 0.79)
Combination Indices at 50% HIV Inhibition (Confidence Interval) (HIV-1 303B; [3]): 0.55 (0.44, 0.66)
Combination Indices at 75% HIV Inhibition (Confidence Interval) (HIV-1 303B; [3]): 0.40 (0.31, 0.49)
Combination Indices at 90% HIV Inhibition (Confidence Interval) (HIV-1 303B; [3]): 0.30 (0.18, 0.42)
Combination Indices at 50% HIV Inhibition (Confidence Interval) (HIV-1 303B; [4]): 0.80 (0.62, 0.97)
Combination Indices at 75% HIV Inhibition (Confidence Interval) (HIV-1 303B; [4]): 0.82 (0.58, 1.07)
Combination Indices at 90% HIV Inhibition (Confidence Interval) (HIV-1 303B; [4]): 0.86 (0.46, 1.26)
